Test results taken from article PMC9099256, “Toward Novel [^18F]Fluorine-Labeled Radiotracers for the Imaging of α-Synuclein Fibrils” (Frontiers in Aging Neuroscience, 2022).
Several values for one entry are separate records, joined by “and”; a condition that tells them apart may be missing. Equal entries are not always repeated.

Key:
[1] = target: T1, human recombinant α-syn fibrils (Homo sapiens, UniProt P37840); assay: Competition binding assay against [3H]DCVJ, α-syn fibrils; settings: for selectivity over Aβ and tau aggregates: abstract; for Ki: non-radioactive ligand vs [3H]DCVJ 10 nM, α-syn fibrils 125 nM, 2 h 37°C
T1 construct: made in house; host or cells: E. coli BL21(DE3), plasmid pET11-D
Description: The competitor reaction was diluted with 20 mM Tris-HCl, pH 7.4 to a final volume of 200 μL per well. After incubation for 2 h at 37°C, the binding mixtures were filtered through a Perkin Elmer GF/B glass filter via a TOMTEC cell harvester and immediately washed three times with 1 mL of deionized water. Filters containing the bound ligands were dried and mixed with 3 mL of Betaplate scint solution (PerkinElmer Life Sciences) and incubated for 2 h before counting in a Wallac 1450 MicroBeta TriLux Liquid Scintillation Counter (PerkinElmer Life Sciences). For the determination of the inhibition constants, data were analyzed using GraphPad Prism software (version 7.0) to obtain IC50 values by fitting the data to the equation Y = bottom + (top - bottom)/(1 + 10(x - log IC50). Ki values were calculated from IC50 values using the equation Ki = IC50/(1 + [radioligand]/Kd).
(§1) The binding affinity of [^18F]d2, [^18F]d4, [^18F]d6, and [^18F]d8 to human recombinant α-syn, Aβ, and tau fibrils was assayed in a competition binding assay with non-radioactive ligands d2, d4, d6, and d8 against tritiated 9-(2,2-dicyanovinyl)julolidine (DCVJ) (Figure 3 and Supplementary Material). […] Although being a pan tracer makes DCVJ a less suitable tracer for the in vivo imaging of any of the protein aggregates, it makes it, however, a useful tool for evaluating the usefulness of other ligands as tracers for various proteinopathies in competitive binding experiments, as well as for scanning the fibril-binding sites in a set of in silico blind dockings.
Purified recombinant α-syn monomer (10 mg/mL) was incubated in PBS, pH 7.4, at 37 °C by shaking at 900 rpm in an Eppendorf Thermomixer for up to 84 hours. To determine the concentration of fibrils, the fibril reaction mixer was centrifuged at 12000 g for 5 min and the fibril pellet was washed 3 times with 20 mM Tris-HCl pH 7.4 to separate fibrils from monomer. Supernatant from all the centrifugation steps were combined and the concentration of monomer in the supernatant was determined using SDS-PAGE. The concentration of the fibrils formed was determined by subtracting the mount of α-syn monomer in the supernatant from initial amount use for fibrillation process.

Aβ1–42 fibrils = target: T2, Aβ1–42 fibrils (Homo sapiens, UniProt P05067); assay: Competition binding assay against [3H]DCVJ, Aβ1–42 fibrils; settings: for Ki: vs [3H]DCVJ 10 nM, fibrils 125 nM
T2 construct: 1 mg of β-amyloid1−42 peptide was dissolved in 50 μL DMSO
Description: (§2) Fixed concentrations (125 nM) of Aβ1–42, tau aggregates, and [^3H]DCVJ (10 and 20 nM, respectively) were used with different concentrations of cold d2, d4, d6, and d8 from 1 to 1,000 nM. The experiment was performed in quadruplicates for each concentration. Further procedures followed the same already described in section “Competition Binding Assays for α-Syn Fibrils.”
as §1
1 mg of β-amyloid1−42 peptide was dissolved in 50 μL DMSO. 925 μL of Milli-Q water was added to the above. Then 25 μL of 1M Tris HCl, pH 7.4 was added to bring the final peptide concentration to 1 mg/mL. The dissolved peptide was then incubated for 30 h at 37°C with shaking at 900 rpm. To determine the concentration of fibrils, the fibril reaction mixer was centrifuged at 12000 g for 5 min and the fibril pellet was washed three times in 20 mM Tris-HCl pH 7.4 to separate fibrils from monomer. Supernatant from all centrifugation steps were combined and the concentration of monomer in the supernatant was determined in a BCA assay, alongside a BSA standard curve. The concentration of the fibrils formed was determined by subtracting the amount of β-amyloid1−42 monomer in the supernatant from initial amount used for fibrillation.

tau fibrils = tau fibrils (Homo sapiens, UniProt P10636); assay: Competition binding assay against [3H]DCVJ, tau fibrils; settings: for Ki: vs [3H]DCVJ 20 nM, fibrils 125 nM
Description: as §2, §1
Recombinant tau monomer was dissolved at 300 µg/mL concentration in 20 mM Tris HCl pH 8.0, 100 mM NaCl, 25 μM low molecular weight heparin, and 0.5 mM DTT. The dissolved peptide was incubated at 37°C for 48 hours with shaking at 900 rpm. To determine the concentration of fibrils, the fibril reaction mixer was centrifuged at 12000 g for 5 min and the fibril pellet was washed 3 times in 20 mM Tris-HCl pH 7.4 to separate fibrils from monomer. Supernatants from all centrifugation steps were combined and the concentration of monomer in the supernatant was determined using BCA assay, alongside a BSA standard curve. The concentration of the fibrils formed was determined by subtracting the amount of tau monomer in the supernatant from initial amount used for fibrillation.

[2] = Log D determination (octanol/PBS pH 7.4); assay type: physicochemical; settings: for logD: octanol/PBS pH 7.4, n = 3; for reduction of log D versus benzodioxole counterpart: [18F]d4 vs [18F]d2, [18F]d8 vs [18F]d6
Description: To a solution of [^18F]d2, [^18F]d4, [^18F]d6, and [^18F]d8 (0.5–1.0 MBq) in 0.5 mL octanol, 0.5 mL PBS (pH 7.4) was added in a 1.5 mL Eppendorf vial. The vials were vigorously vortexed for 10 min. To achieve efficient phase separation, the vials were centrifuged for 10 min at 13,000 rpm in a Heraeus Biofuge 13 centrifuge. Aliquots (100 μL) of the aqueous and the octanol phase were collected carefully and the amount radioactivity in the respective samples was quantified using a γ-counter. The log octanol/PBS values were calculated from the means of n = 3 separate determinations.

[3] = In vitro plasma protein binding (ultrafiltration); assay type: in vitro ADME, human; settings: for fp (free plasma fraction): human plasma, ultrafiltration, n = 3; for fp relative to benzodioxole counterpart: [18F]d8 vs [18F]d6, [18F]d4 vs [18F]d2
Description: To estimate the free fraction (fp) of the radioligands in the plasma, an ultrafiltration method was used. Approximately 1 MBq of [^18F]d2, [^18F]d4, [^18F]d6, and [^18F]d8 were added to 450 μL of Seronorm Human plasma (Invicon GmbH, Munich, Germany), and the mixture was incubated for 10 min. After incubation, 150 μL of plasma was transferred into 3 ultrafiltration tubes (Centrifree YM-30; cutoff 30,000 MW; Millipore) and centrifuged at 8,000 rpm for 10 min. Equal aliquots of the ultrafiltrate (Cfree), and of the plasma (Ctotal) were counted for their radioactivity with a γ-counter. The fp of the radioligands was calculated as fp = Cfree/Ctotal (n = 3).

[4] = Biodistribution experiments; assay type: in vivo, healthy C57BL/6J mice; settings: for brain uptake at 5 min p.i. / brain uptake at 60 min p.i.: i.v.
Description: The ethanol solutions containing the tracers [^18F]d2, [^18F]d4, [^18F]d6, and [^18F]d8 were diluted with DMSO, Tween-20, and saline added consecutively to achieve a final concentration of 2.4, 2.4, and 0.4% of ethanol, DMSO, and Tween-20, respectively. The pH was adjusted with 0.05 N aqueous sodium hydroxide solution. 1.5–2.5 MBq of [^18F]d2, [^18F]d4, [^18F]d6, and [^18F]d8 prepared in the above solvent mixture were administered to the mice via the caudal vein under isoflurane anesthesia. The mice were sacrificed at 5 and 60 min p.i. The following organs/tissues were extracted: blood, heart, lung, liver, stomach, pancreas, colon, small intestine, kidney, muscle, bone, tail, and the brain. The radioactivity in the pre-weighed tissue samples was determined using a γ-counter. Data are expressed as a percent of the injected dose per gram tissue (% ID/g; mean ± sd, n = 3).

[5] = In vivo PET-MRI dynamic scan with biodistribution; parameters: species or system healthy C57BL/6J mice; settings: healthy mice, i.v., biodistribution after PET dynamic scan
Description: For PET imaging [^18F]d6 and [^18F]d8 were prepared as described in section “Biodistribution Experiments” and ∼11 MBq was injected via the caudal vein in the mice (n = 3 for each tracer). PET was recorded on nanoScan PET/MRI (Mediso Medical Imaging System) under isoflurane anesthesia. PET was continuously recorded in list mode for 120 min and consisted of 36 frames (1 × 60 s; 30 × 10 s; 1 × 600 s; 1 × 900 s; and 3 × 1800 s) while anesthesia was maintained. Data were reconstructed using Nucline nanoScan 3.00.021.0000 software, employing a three-dimensional ordered subset expectation maximum (OSEM3D) algorithm without a scatter and attenuation correction. Tissue time–activity curves (TACs) were obtained by projecting the defined ROI onto all frames of the dynamic PET scans. At 2 h after the PET dynamic scan, the mice were promptly euthanized, the rest of the protocol followed as already described in section “Biodistribution Experiments.”

[6] = Metabolite experiments (brain and plasma, 20 min p.i.); assay type: in vivo, healthy mice
Description: Tracers [^18F]d6 and [^18F]d8 were prepared as already described above in section “Biodistribution Experiments.” About 80–120 MBq of the tracers were injected via the caudal vein in the mice (n = 3 per tracer). At 20 min p.i., the animals were euthanized, and the needed tissues were extracted and placed on dry ice. To separate plasma from the blood cells, the blood samples were first centrifuged 13,000 rpm for 10 min, then acetonitrile acidified with 1% trifluoroacetic acid (TFA) (10 min, 4°C) was added to the centrifugate to precipitate the plasma proteins, followed by another centrifugation as already described, and ultrafiltration using ultrafiltration tubes (Centrifree YM-30; cutoff 30,000 MW; Millipore). A 10 μL of 1 M DMSO solution of the cold references was added to the centrifugate which was subsequently analyzed by RP-HPLC. The brain was frozen in liquid nitrogen and homogenized with a ball mill. A mixture of acetonitrile and DMSO (5:1) with 1% TFA containing the cold references of the tracers was added to the homogenate and mixed. The suspension was centrifuged. The supernatant was then filtered using ultrafiltration tubes as already described, the resulting filtrate was subsequently analyzed by RP-HPLC.

Sequence of tau fibrils (P10636 2-758): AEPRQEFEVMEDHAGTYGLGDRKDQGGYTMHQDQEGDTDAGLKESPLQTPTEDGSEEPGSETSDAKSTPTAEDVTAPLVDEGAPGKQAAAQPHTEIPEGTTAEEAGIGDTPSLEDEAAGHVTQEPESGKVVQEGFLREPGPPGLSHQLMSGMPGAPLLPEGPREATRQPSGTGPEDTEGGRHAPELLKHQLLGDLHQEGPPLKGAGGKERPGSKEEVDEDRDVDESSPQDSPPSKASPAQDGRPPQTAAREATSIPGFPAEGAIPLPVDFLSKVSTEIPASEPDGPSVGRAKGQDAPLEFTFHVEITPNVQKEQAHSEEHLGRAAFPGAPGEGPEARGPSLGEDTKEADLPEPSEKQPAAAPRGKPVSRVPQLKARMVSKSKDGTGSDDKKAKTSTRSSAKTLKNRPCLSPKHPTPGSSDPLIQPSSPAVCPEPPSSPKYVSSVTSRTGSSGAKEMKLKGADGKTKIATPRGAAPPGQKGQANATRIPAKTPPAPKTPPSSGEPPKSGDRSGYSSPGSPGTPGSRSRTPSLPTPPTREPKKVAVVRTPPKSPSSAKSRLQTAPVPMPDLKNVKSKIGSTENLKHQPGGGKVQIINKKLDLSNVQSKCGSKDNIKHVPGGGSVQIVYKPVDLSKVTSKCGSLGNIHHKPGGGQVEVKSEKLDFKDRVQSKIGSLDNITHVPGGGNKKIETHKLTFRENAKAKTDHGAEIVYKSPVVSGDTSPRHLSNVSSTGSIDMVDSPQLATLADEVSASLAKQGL
T2 sequence (P05067 672-713): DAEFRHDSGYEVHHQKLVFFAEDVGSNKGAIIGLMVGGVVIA

## N#CC(C#N)=Cc1cc2c3c(c1)CCCN3CCC2 [DCVJ, 9-(2,2-dicyanovinyl)julolidine, reference compound]
[1]; radioligand/pan-amyloid ligand
  Kd: 4.42 nM
Aβ1–42 fibrils; radioligand/pan-amyloid ligand, read-out: Kd for Aβ
  Kd: 8.9 nM
Tau fibrils; radioligand/pan-amyloid ligand
  Kd: 15.6 nM

## COc1ccc(-c2csc(-c3nc(-c4ccc5c(c4)OCO5)cs3)n2)cc1[18F] [[^18F]d2, 4-(benzo[d][1,3]dioxol-5-yl)-4′-(3-[^18F]fluoro-4-methoxyphenyl)-2,2′-bithiazole]
[2]
  logD: 3.1 ± 0.09
[3]
  fp (free plasma fraction): 0.25 ± 0.01%
[4]; healthy mice, 5 min p.i.
  brain uptake at 5 min p.i.: 1.58 %ID/g
[4]; healthy mice
  brain uptake at 60 min p.i.: 1.93 %ID/g

## Fc1ccc(-c2csc(-c3nc(-c4ccc5c(c4)OCO5)cs3)n2)cn1 [d6, 4-(benzo[d][1,3]dioxol-5-yl)-4'-(6-fluoropyridin-3-yl)-2,2'-bithiazole]
[1]
  selectivity over Aβ and tau aggregates: > 200 fold
  Ki: 1.21 nM
Aβ1–42 fibrils
  Ki: 237 nM
Tau fibrils
  Ki: 966 nM

## COc1ccc(-c2csc(-c3nc(-c4ccc5c(c4)OCO5)cs3)n2)cc1F [d2, 4-(benzo[d][1,3]dioxol-5-yl)-4'-(3-fluoro-4-methoxyphenyl)-2,2'-bithiazole]
[1]
  selectivity over Aβ: about 200 fold
  selectivity over tau: ~1,000 fold
  selectivity over Aβ and tau aggregates: > 200 fold
  Ki: 1.22 nM
Aβ1–42 fibrils
  Ki: 242 nM
Tau fibrils
  Ki: > 1000 nM

## COc1ccc(-c2csc(-c3nc(-c4cnc5c(c4)OCO5)cs3)n2)cc1[18F] [[^18F]d4, 6-(4′-(3-[^18F]fluoro-4-methoxyphenyl)-[2,2′-bithiazol]-4-yl)-[1,3]dioxolo[4,5-b]pyridine]
[2]
  reduction of log D versus benzodioxole counterpart: approximately 3.2%
  logD: 3 ± 0.04
[3]
  fp relative to benzodioxole counterpart: ~2 times
  fp (free plasma fraction): 0.45 ± 0.03%
[4]; healthy mice, 5 min p.i.
  brain uptake at 5 min p.i.: 4.63 %ID/g
[4]; healthy mice
  brain uptake at 60 min p.i.: 3.86 %ID/g

## Fc1ccc(-c2csc(-c3nc(-c4cnc5c(c4)OCO5)cs3)n2)cn1 [d8, 6-(4'-(6-fluoropyridin-3-yl)-[2,2'-bithiazol]-4-yl)-[1,3]dioxolo[4,5-b]pyridine]
[1]
  selectivity over Aβ and tau aggregates: > 200 fold
  Ki: 0.1 nM
Aβ1–42 fibrils
  Ki: 386 nM
Tau fibrils
  Ki: > 1000 nM

## COc1ccc(-c2csc(-c3nc(-c4cnc5c(c4)OCO5)cs3)n2)cc1F [d4, 6-(4'-(3-fluoro-4-methoxyphenyl)-[2,2'-bithiazol]-4-yl)-[1,3]dioxolo[4,5-b]pyridine]
[1]
  selectivity over Aβ and tau aggregates: > 200 fold
  Ki: 0.66 nM
Aβ1–42 fibrils
  Ki: 275 nM
Tau fibrils
  Ki: > 1000 nM

## [18F]c1ccc(-c2csc(-c3nc(-c4cnc5c(c4)OCO5)cs3)n2)cn1 [[^18F]d8, 6-(4′-(6-[^18F]fluoropyridin-3-yl)-[2,2′-bithiazol]-4-yl)-[1,3]dioxolo[4,5-b]pyridine]
[2]
  reduction of log D versus benzodioxole counterpart: ~7.1%
  logD: 2.6 ± 0.09
[3]
  fp relative to benzodioxole counterpart: about 6 times
  fp (free plasma fraction): 0.85 ± 0.02%
[4]; healthy mice, 5 min p.i.
  reduction in brain concentration at 5 min p.i. versus [18F]d6: 11.4%
  brain uptake at 5 min p.i.: 5.13 %ID/g
[4]; healthy mice
  brain uptake at 60 min p.i.: ~1 %ID/g and 1.07 %ID/g
[4]; mice, time not stated
  brain uptake in mice: > 4 % ID/g
[5]
  brain uptake at 120 min p.i.: < 1 %ID/g and 0.58 %ID/g
[6]; healthy mice
  brain radiometabolites: no brain radiometabolites
[6]; mice, brain homogenate
  parent tracer in brain content: > 99%
[6]; mice, plasma
  parent tracer remaining in the plasma (in vivo stability): > 60%

## [18F]c1ccc(-c2csc(-c3nc(-c4ccc5c(c4)OCO5)cs3)n2)cn1 [[^18F]d6, 4-(benzo [d][1,3]dioxol-5-yl)-4′-(6-[^18F]fluoropyridin-3-yl)-2,2′-bithiazole]
[2]
  logD: 2.8 ± 0.09
[3]
  fp (free plasma fraction): 0.14 ± 0.02%
[4]; healthy mice, 5 min p.i.
  brain uptake at 5 min p.i.: 5.79 %ID/g
[4]; healthy mice
  brain uptake at 60 min p.i.: 1.75 %ID/g
[5]
  brain uptake at 120 min p.i.: 1.04 %ID/g
